# Experiments:
# [1] = tested on: Burkholderia cenocepacia; test: Spectrum of antibacterial activity of GML; format: cell-based; conditions: optimal growth conditions; 1 strain tested
# [2] = tested on: Mycobacterium phlei; test: Spectrum of antibacterial activity of GML; format: cell-based; conditions: optimal growth conditions; 1 strain tested
# [3] = tested on: Streptococcus agalactiae; test: Spectrum of antibacterial activity of GML; format: cell-based; conditions: optimal growth conditions; 3 strains tested
# [4] = tested on: Salmonella minnesota; test: Spectrum of antibacterial activity of GML; format: cell-based; conditions: optimal growth conditions; 1 strain tested
# [5] = tested on: Group G Streptococcus; test: Spectrum of antibacterial activity of GML; format: cell-based; conditions: optimal growth conditions; 1 strain tested
# [6] = tested on: Enterococcus faecalis; test: Spectrum of antibacterial activity of GML; format: cell-based; conditions: optimal growth conditions; 1 strain tested
# [7] = tested on: P. aeruginosa (strain PAO 1); test: Effect of pH on GML activity; format: cell-based, Pseudomonas aeruginosa; conditions: GML 10 μg/mL to 5000 μg/mL, 24 hours
# Description: The effect of GML at a range of concentrations and in the presence of a range of pH levels on the growth of Pseudomonas aeruginosa was also determined. P. aeruginosa (strain PAO 1) was inoculated in Todd Hewitt broth at 5.7×10^6/mL. GML was added to cultures at a range of concentrations from 10 μg/mL to 5000 μg/mL, and the pH was adjusted to 5.0, 6.0, or 7.0. CFU/mL was determined after 24 hours of incubation. […] A pH of 5.0 in the absence of GML was somewhat inhibitory for the growth of P. aeruginosa.
# [8] = tested on: Bacillus cereus; test: Spectrum of antibacterial activity of GML; format: cell-based; conditions: optimal growth conditions; 1 strain tested
# [9] = tested on: Campylobacter jejuni; test: Spectrum of antibacterial activity of GML; format: cell-based; conditions: optimal growth conditions; 1 strain tested
# [10] = tested on: Pasteurella multocida; test: Spectrum of antibacterial activity of GML; format: cell-based; conditions: optimal growth conditions; 1 strain tested
# [11] = tested on: S. aureus MN8; test: Antibacterial activity of GML after pre-treatment with sterile culture fluid; format: cell-based; conditions: 24 hour assay
# [12] = tested on: Candida albicans; test: GML in vegetable oil, growth in Todd Hewitt broth (CFU/mL); format: cell-based; conditions: GML in olive, palm or corn oil (all 3); 18 hours, 37° C.
# [13] = tested on: S. aureus strain MN8; test: Decolonization of contaminated surgical incision sites; format: in vivo, New Zealand white rabbits; conditions: GML 5% w/v non-aqueous gel swabbed
# [14] = tested on: Bacteroides fragilis; test: Spectrum of antibacterial activity of GML; format: cell-based; conditions: optimal growth conditions; 2 strains tested
# [15] = tested on: Mycobacterial species; format: cell-based
# [16] = tested on: S. aureus; test: Decolonization of anterior nares; format: in vivo, human; conditions: 5% w/v GML in non-aqueous gel
# Description: A study was undertaken to assess the ability of GML (5% w/v), formulated in a non-aqueous gel, to decolonize the respiratory tract in humans, and to decolonize contaminated surgical incision sites in experimental rabbits.
# Three human subjects underwent swabs of the anterior nares in order to assess whether GML was capable of decolonizing the respiratory tract. […] The swabs were rotated around each nare up to the nasal bone 3 times. Colony-forming units of microbes from swabs were determined by plate counts on blood agar and mannitol salt agar. The anterior nares were then treated in the same way with swabs that had been dipped one time in GML gel. The anterior nares of each participant were swabbed at designated time periods for up to 24 hours, and swabs were cultured for S. aureus and coagulase-negative staphylococci.
# [17] = tested on: Streptococcus pneumoniae Serotype III; test: Spectrum of antibacterial activity of GML; format: cell-based; conditions: optimal growth conditions; 2 strains tested
# [18] = tested on: S. aureus MN8; test: Bactericidal activity of GML versus lauric acid; format: cell-based; conditions: 24 hours, 37° C.; bactericidal = at least 3 log reduction
# [19] = tested on: Neisseria gonorrhoeae; test: Spectrum of antibacterial activity of GML; format: cell-based; conditions: optimal growth conditions; 1 strain tested
# [20] = tested on: Streptococcus suis; test: Spectrum of antibacterial activity of GML; format: cell-based; conditions: optimal growth conditions; 1 strain tested
# [21] = tested on: Klebsiella pneunoniae; test: Spectrum of antibacterial activity of GML; format: cell-based; conditions: optimal growth conditions; 1 strain tested
# [22] = tested on: Shigella sonnei; format: cell-based
# [23] = tested on: Group C Streptococcus; test: Spectrum of antibacterial activity of GML; format: cell-based; conditions: optimal growth conditions; 1 strain tested
# [24] = tested on: Streptococcus pyogenes; test: Spectrum of antibacterial activity of GML; format: cell-based; conditions: optimal growth conditions; 4 strains tested
# [25] = tested on: S. aureus 128 (TSST-1); format: cell-based
# [26] = tested on: S. pyogenes; test: Bactericidal activity of GML versus lauric acid; format: cell-based; conditions: 24 hours, 37° C.
# [27] = tested on: Proteus vulgaris; test: Spectrum of antibacterial activity of GML; format: cell-based; conditions: optimal growth conditions; 1 strain tested
# [28] = tested on: S. aureus biofilm; test: Treatment of previously formed biofilms; format: cell-based; conditions: 48 hour biofilm; 500 μg/mL GML for 60 minutes at 37° C.
# [29] = tested on: Prevotella melaninogenica; test: Spectrum of antibacterial activity of GML; format: cell-based; conditions: optimal growth conditions; 1 strain tested
# [30] = tested on: H. influenzae biofilm; test: Treatment of previously formed biofilms; format: cell-based; conditions: 48 hour biofilm; 500 μg/mL GML for 60 minutes at 37° C.
# Description: Supernatants were removed and bactericidal activity was determined by measuring CFU/mL (FIG. 9, left; # significant reduction in mean absorbance at 595 nm compared to no GML control, p<0.01). Wells were then washed and stained with crystal violet as described above.
# [31] = tested on: Bordetella bronchiseptica; test: Spectrum of antibacterial activity of GML; format: cell-based; conditions: optimal growth conditions; 1 strain tested
# [32] = tested on: Haemophilus influenzae Non-typable; test: Spectrum of antibacterial activity of GML; format: cell-based; conditions: optimal growth conditions; 2 strains tested
# [33] = tested on: coagulase-negative staphylococci; test: Decolonization of anterior nares; format: in vivo, human; conditions: 5% w/v GML in non-aqueous gel
substance,measurement,setting,value
Glycerol monolaurate [GML],Average Bactericidal Concentration of GML,[1],500 µg/mL
same,Average Bactericidal Concentration of GML,[2],100 µg/mL
same,Average Bactericidal Concentration of GML,[3],30 µg/mL
same,Average Bactericidal Concentration of GML,[4],Not Susceptible
same,Average Bactericidal Concentration of GML,[5],50 µg/mL
same,Average Bactericidal Concentration of GML,[6],100 µg/mL
same,effect on growth (CFU/mL),[7]; pH 5.0,further inhibited P. aeruginosa growth in a dose-dependent manner
same,effect on growth (CFU/mL),[7]; pH 6.0 or 7.0,no concentration of GML was inhibitory
same,Average Bactericidal Concentration of GML,[8],50 µg/mL
same,Average Bactericidal Concentration of GML,[9],1 µg/mL
same,Average Bactericidal Concentration of GML,[10],500 µg/mL
same,antibacterial activity of GML after pre-incubation,[11]; pre-incubated overnight with sterile culture fluid from S. aureus MN8,eliminated the antibacterial activity
same,antibacterial activity of GML after pre-incubation,[11]; pre-incubated overnight with sterile culture fluid from S. pyogenes,did not affect
same,GML concentration at which growth was inhibited,[12],100 µg/mL
same,S. aureus CFU/mL at surgical incision sites,"[13]; 24 hour time-point, PBS control 8.8 log CFU/mL",no CPUs were detectable
same,inflammation at the surgical site (redness),"[13]; 24 hours, versus PBS",less inflammation
same,Average Bactericidal Concentration of GML,[14],50 µg/mL
same,GML concentration at which organisms were killed,[15],≥ 50 µg/mL
same,S. aureus counts in both nares after treatment,"[16]; swab, three subjects, all time-points up to 24 hour",0 CFU/mL
same,S. aureus counts over 3 day test period,[16]; one subject,0
same,Average Bactericidal Concentration of GML,[17],10 µg/mL
same,fold lower bactericidal concentration than lauric acid,[18],200 fold
same,Average Bactericidal Concentration of GML,[19],20 µg/mL
same,Average Bactericidal Concentration of GML,[20],50 µg/mL
same,Average Bactericidal Concentration of GML,[21],Not Susceptible
same,Average Bactericidal Concentration of GML,[22],Not Susceptible
same,Average Bactericidal Concentration of GML,[23],30 µg/mL
same,Average Bactericidal Concentration of GML,[24],30 µg/mL
same,TSST-1 in tampon sacs (Western immunoblot),[25],not detected
same,fold more bactericidal for S. pyogenes than for S. aureus,[26],5 fold
same,fold lower bactericidal concentration than lauric acid,"[26]; 7% CO2, bactericidal = at least 3 log reduction",500 fold
same,Average Bactericidal Concentration of GML,[27],Not Susceptible
same,bactericidal activity on previously formed biofilm (CFU/mL),[28],killed
same,biofilm material attached to the wells (crystal violet staining),[28],nearly completely removed biofilm material
same,Average Bactericidal Concentration of GML,[29],50 µg/mL
same,bactericidal activity on previously formed biofilm (CFU/mL),[30],killed
same,biofilm material attached to the wells (crystal violet staining),[30],nearly completely removed biofilm material
same,Average Bactericidal Concentration of GML,[31],1 µg/mL
same,Average Bactericidal Concentration of GML,[32],50 µg/mL
same,coagulase-negative staphylococcal counts in both nares after treatment,"[33]; swab, three subjects, 4 hours or more up to 24 hour",significantly (p<0.05) reduced
same,coagulase-negative staphylococci in right nare after 3 days,"[33]; one subject, initially 560",8 CFU/mL
same,coagulase-negative staphylococci in left nare after 3 days,"[33]; one subject, initially 880",0 CFU/mL

# Source: patent publication US12194140B2, “Compositions for topical treatment of microbial infections” (Hennepin Life Sciences, priority 2012, dated 2025)
